According to ChEMBL document CHEMBL1201862, “PubChem BioAssay data set” (2004):
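A five-concentration, 48-hour dose response in 96-well plates underlies each endpoint, interpolated linearly between surrounding concentrations. GI50 is the concentration that inhibits growth by half.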 The source made the active and inactive calls. Cut-off read from the data, not from the text of the source: active = GI50 up to about 1.1 µM and inactive = higher.

How the values were obtained:
Experiment in all cases: NCI anticancer screen, dose series, 48 h
[1] = test system: NCI/ADR-RES
[2] = test system: SN12C
[3] = test system: CAKI-1
[4] = test system: SNB-75
[5] = test system: COLO 205
[6] = test system: HCT-116
[7] = test system: RXF 393
[8] = test system: 786-0
[9] = test system: ACHN
[10] = test system: SK-OV-3
[11] = test system: NCI-H23
[12] = test system: KM12
[13] = test system: UO-31
[14] = test system: EKVX
[15] = test system: OVCAR-8
[16] = test system: LXFL 529
[17] = test system: SR
[18] = test system: MCF7
[19] = test system: Hs-578T
[20] = test system: OVCAR-3
[21] = test system: KM-20L2
[22] = test system: LOX IMVI
[23] = test system: OVCAR-4
[24] = test system: MDA-N
[25] = test system: HT-29
[26] = test system: A549
[27] = test system: SNB-19
[28] = test system: U-251
[29] = test system: UACC-62
[30] = test system: Malme-3M
[31] = test system: M19-MEL
[32] = test system: CCRF-CEM
[33] = test system: PC-3
[34] = test system: SF-295
[35] = test system: SK-MEL-5
[36] = test system: UACC-257
[37] = test system: TK-10
[38] = test system: SK-MEL-2
[39] = test system: SK-MEL-28
[40] = test system: RPMI-8226
[41] = test system: SF-539
[42] = test system: HL-60
[43] = test system: IGROV-1
[44] = test system: SF-268
[45] = test system: K562
[46] = test system: DMS-114
[47] = test system: MDA-MB-231
[48] = test system: NCI-H226
[49] = test system: DLD-1
[50] = test system: M14
[51] = test system: HCC 2998
[52] = test system: DMS-273
[53] = test system: XF498
[54] = test system: NCI-H460
[55] = test system: OVCAR-5
[56] = test system: BT-549
[57] = test system: A498
[58] = test system: T47D
[59] = test system: MDA-MB-435
[60] = test system: SW-620
[61] = test system: HOP-62
[62] = test system: HOP-18
[63] = test system: HCT-15
[64] = test system: MOLT-4
[65] = test system: NCI-H522
[66] = test system: HOP-92
[67] = test system: DU-145
[68] = test system: SNB-78

CCCCCC/C=C1\CCC(CN(C)C)C1=O (stereo unspecified)
GI50 [1]: 7.38 µM (inactive) | GI50 [2]: 3.74 µM (inactive) | GI50 [3]: 4.75 µM (inactive) | GI50 [4]: 11 µM (inactive) | GI50 [5]: 3.15 µM (inactive) | GI50 [6]: 3.56 µM (inactive) | GI50 [7]: 3.51 µM (inactive) | GI50 [8]: 1.98 µM (inactive) | GI50 [9]: 9.64 µM (inactive) | GI50 [10]: 20.3 µM (inactive) | GI50 [11]: 8.73 µM (inactive) | GI50 [12]: 2.48 µM (inactive) | GI50 [13]: 15.4 µM (inactive) | GI50 [14]: 16 µM (inactive) | GI50 [15]: 4.44 µM (inactive) | GI50 [16]: 1.99 µM (inactive) | GI50 [17]: 1.85 µM (inactive) | GI50 [18]: 1.86 µM (inactive) | GI50 [19]: 7 µM (inactive) | GI50 [20]: 6.61 µM (inactive) | GI50 [21]: 8.73 µM (inactive) | GI50 [22]: 1.89 µM (inactive) | GI50 [23]: 19.6 µM (inactive) | GI50 [24]: 5.47 µM (inactive) | GI50 [25]: 4.81 µM (inactive) | GI50 [26]: 19.8 µM (inactive) | GI50 [27]: 15.4 µM (inactive) | GI50 [28]: 4.25 µM (inactive) | GI50 [29]: 5.64 µM (inactive) | GI50 [30]: 7.23 µM (inactive) | GI50 [31]: 2.59 µM (inactive) | GI50 [32]: 1.83 µM (inactive) | GI50 [33]: 11.5 µM (inactive) | GI50 [34]: 12.7 µM (inactive) | GI50 [35]: 14.3 µM (inactive) | GI50 [36]: 7.71 µM (inactive) | GI50 [37]: 3.53 µM (inactive) | GI50 [38]: 13 µM (inactive) | GI50 [39]: 4.14 µM (inactive) | GI50 [40]: 0.641 µM (active) | GI50 [41]: 15.1 µM (inactive) | GI50 [42]: 1.52 µM (inactive) | GI50 [43]: 10.5 µM (inactive) | GI50 [44]: 5.35 µM (inactive) | GI50 [45]: 2.4 µM (inactive) | GI50 [46]: 4.24 µM (inactive) | GI50 [47]: 6.43 µM (inactive) | GI50 [48]: 18.7 µM (inactive) | GI50 [49]: 2.23 µM (inactive) | GI50 [50]: 4.73 µM (inactive) | GI50 [51]: 5.74 µM (inactive) | GI50 [52]: 4.15 µM (inactive) | GI50 [53]: 3.31 µM (inactive) | GI50 [54]: 16.6 µM (inactive) | GI50 [55]: 16.9 µM (inactive) | GI50 [56]: 18.9 µM (inactive) | GI50 [57]: 17 µM (inactive) | GI50 [58]: 2.86 µM (inactive) | GI50 [59]: 8.04 µM (inactive) | GI50 [60]: 2.56 µM (inactive) | GI50 [61]: 19.6 µM (inactive) | GI50 [62]: 15.4 µM (inactive) | GI50 [63]: 2.44 µM | GI50 [64]: 3.05 µM (inactive) | GI50 [65]: 2.85 µM (inactive) | GI50 [66]: 11.4 µM (inactive) | GI50 [67]: 20.1 µM (inactive)

CC1=NCCc2cc3[nH]c4ccccc4c3cc21
GI50 [1]: 23.7 µM (inactive) | GI50 [2]: 17.5 µM (inactive) | GI50 [3]: 5.32 µM (inactive) | GI50 [4]: 23.2 µM (inactive) | GI50 [5]: 9.91 µM (inactive) | GI50 [6]: 12.8 µM (inactive) | GI50 [7]: 6.4 µM (inactive) | GI50 [10]: 17.8 µM (inactive) | GI50 [11]: 33 µM (inactive) | GI50 [12]: 20.8 µM (inactive) | GI50 [13]: 17.6 µM (inactive) | GI50 [14]: 41.2 µM (inactive) | GI50 [15]: 24.6 µM (inactive) | GI50 [18]: 15.1 µM (inactive) | GI50 [20]: 50.2 µM (inactive) | GI50 [21]: 11.2 µM (inactive) | GI50 [22]: 12.6 µM (inactive) | GI50 [23]: 47.5 µM (inactive) | GI50 [25]: 14.8 µM (inactive) | GI50 [26]: 33.2 µM (inactive) | GI50 [27]: 49.1 µM (inactive) | GI50 [28]: 22.7 µM (inactive) | GI50 [29]: 14.3 µM (inactive) | GI50 [30]: 10.7 µM (inactive) | GI50 [31]: 14.9 µM (inactive) | GI50 [32]: 12.5 µM (inactive) | GI50 [34]: 13.4 µM (inactive) | GI50 [35]: 11.8 µM (inactive) | GI50 [36]: 10.3 µM (inactive) | GI50 [38]: 11.3 µM (inactive) | GI50 [39]: 10.7 µM (inactive) | GI50 [40]: 13.2 µM (inactive) | GI50 [41]: 12.6 µM (inactive) | GI50 [42]: 12.1 µM (inactive) | GI50 [43]: 26.9 µM (inactive) | GI50 [44]: 22.1 µM (inactive) | GI50 [45]: 9.79 µM (inactive) | GI50 [46]: 11.6 µM (inactive) | GI50 [48]: 15.2 µM (inactive) | GI50 [49]: 19.2 µM (inactive) | GI50 [51]: 24 µM (inactive) | GI50 [52]: 13.6 µM (inactive) | GI50 [53]: 10.9 µM (inactive) | GI50 [54]: 13.3 µM (inactive) | GI50 [55]: 16.6 µM (inactive) | GI50 [57]: 11.5 µM (inactive) | GI50 [68]: 28.2 µM (inactive) | GI50 [60]: 15.7 µM (inactive) | GI50 [61]: 49.3 µM (inactive) | GI50 [62]: 18.7 µM (inactive) | GI50 [63]: 21.7 µM | GI50 [64]: 11.5 µM (inactive) | GI50 [65]: 21.3 µM (inactive) | GI50 [66]: 0.897 µM (active)
